Values joined by “and” are separate entries in the source; they are usually repeats but may differ in a detail not shown here. Identical values can stand only once. Inconclusive results and toxic doses are left out. Rule as the data show it: active = T/C of 150% or more; inactive = T/C below 125%.
System: L1210 leukemia ip in BDF1 mice, survival T/C
Experiment: NCI In Vivo Anticancer Drug Screen. Data for tumor model L1210 Leukemia (intraperitoneal) in B6D2F1 (BDF1) mice
Conditions: endpoint: mean survival time, higher = longer survival
In short: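 Ratio derived from survival: compound-dosed mice over vehicle-dosed mice, all bearing a transplantable tumor.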

[1] = dose: 100.0 mg/kg/injection, schedule: Q04DX003 (ip), vehicle: saline with Tween-80
[2] = dose: 200.0 mg/kg/injection, schedule: Q04DX003 (ip), vehicle: saline with Tween-80
[3] = dose: 400.0 mg/kg/injection, schedule: Q04DX003 (ip), vehicle: saline with Tween-80
[4] = dose: 100.0 mg/kg/injection, schedule: Q01DX001 (ip), vehicle: saline
[5] = dose: 200.0 mg/kg/injection, schedule: Q01DX001 (ip), vehicle: saline
[6] = dose: 400.0 mg/kg/injection, schedule: Q01DX001 (ip), vehicle: saline

Measured: T/C

Cc1ccc(N=C=C(c2ccc(Cl)cc2)c2ccc(Cl)cc2)cc1
inactive: dose: 1.56 mg/kg/injection, schedule: Q01DX009 (ip), vehicle: DMSO 104 % of control | dose: 3.12 mg/kg/injection, schedule: Q01DX009 (ip), vehicle: DMSO 93 % of control | dose: 6.25 mg/kg/injection, schedule: Q01DX009 (ip), vehicle: DMSO 97 % of control and 103 % of control | dose: 12.5 mg/kg/injection, schedule: Q04DX002 (ip), vehicle: DMSO 105 % of control | dose: 25.0 mg/kg/injection, schedule: Q04DX002 (ip), vehicle: DMSO 109 % of control

COC1C(COC(C)=O)OC(n2cnc3c(=S)nc[nH]c32)C1OC(C)=O (configuration not stated)
inactive: dose: 100.0 mg/kg/injection, schedule: Q01DX001 (ip), vehicle: carboxymethylcellulose (CMC) 114 % of control | dose: 200.0 mg/kg/injection, schedule: Q01DX001 (ip), vehicle: carboxymethylcellulose (CMC) 104 % of control | dose: 400.0 mg/kg/injection, schedule: Q01DX001 (ip), vehicle: carboxymethylcellulose (CMC) 111 % of control

CCCCC(CC)COP(OCC(CC)CCCC)OCC(CC)CCCC (configuration not stated)
inactive: [1] 96 % of control | [2] 100 % of control | [3] 96 % of control

CCOC(=O)Nc1ccc(F)cc1OC
inactive: dose: 100.0 mg/kg/injection, schedule: Q04DX002 (ip), vehicle: other 107 % of control | dose: 200.0 mg/kg/injection, schedule: Q04DX002 (ip), vehicle: other 104 % of control | dose: 400.0 mg/kg/injection, schedule: Q04DX002 (ip), vehicle: other 96 % of control

Cc1cc(NC(=O)NCc2ccc([N+](=O)[O-])cc2)ccc1S(=O)(=O)F
inactive: [1] 100 % of control | [2] 95 % of control | [3] 92 % of control

CC(=O)c1csc2ccccc12
inactive: dose: 12.5 mg/kg/injection, schedule: Q01DX009 (ip), vehicle: Klucel (hydroxypropylcellulose) (HPC) 106 % of control | dose: 25.0 mg/kg/injection, schedule: Q01DX009 (ip), vehicle: Klucel (hydroxypropylcellulose) (HPC) 101 % of control | dose: 50.0 mg/kg/injection, schedule: Q01DX009 (ip), vehicle: Klucel (hydroxypropylcellulose) (HPC) 106 % of control

O=C(Oc1ccc(Cl)cc1)c1ccccc1
inactive: dose: 100.0 mg/kg/injection, schedule: Q01DX009 (ip), vehicle: Klucel (hydroxypropylcellulose) (HPC) 95 % of control | dose: 100.0 mg/kg/injection, schedule: Q04DX003 (ip), vehicle: Klucel (hydroxypropylcellulose) (HPC) 103 % of control | dose: 200.0 mg/kg/injection, schedule: Q01DX009 (ip), vehicle: Klucel (hydroxypropylcellulose) (HPC) 101 % of control | dose: 200.0 mg/kg/injection, schedule: Q04DX003 (ip), vehicle: Klucel (hydroxypropylcellulose) (HPC) 105 % of control | dose: 400.0 mg/kg/injection, schedule: Q01DX009 (ip), vehicle: Klucel (hydroxypropylcellulose) (HPC) 101 % of control | dose: 400.0 mg/kg/injection, schedule: Q04DX003 (ip), vehicle: Klucel (hydroxypropylcellulose) (HPC) 92 % of control

COC(=O)Cc1ccccc1C(=O)OC
inactive: [1] 107 % of control | [2] 96 % of control | [3] 100 % of control

CCOC1c2ccccc2-c2ccccc2N1C(=O)c1ccccc1 (configuration not stated)
inactive: dose: 50.0 mg/kg/injection, schedule: Q04DX003 (ip), vehicle: saline with Tween-80 98 % of control | [1] 106 % of control | [2] 97 % of control and 109 % of control | [3] 103 % of control

O=c1[nH]c(=S)c2ncn(C3OC(CO)C(O)C3O)c2[nH]1 (configuration not stated)
inactive: [4] 107 % of control | [5] 101 % of control | [6] 104 % of control

CCOCCOC(=O)c1ccc(C(N)=NC2CCCCC2)cc1
inactive: [4] 100 % of control | [5] 102 % of control | [6] 90 % of control

C=C[CH2][Sn]([CH2]C=C)([c]1ccccc1)[c]1ccccc1
inactive: dose: 1.56 mg/kg/injection, schedule: Q01DX009 (ip), vehicle: saline with Tween-80 97 % of control | dose: 3.13 mg/kg/injection, schedule: Q01DX009 (ip), vehicle: saline with Tween-80 92 % of control | dose: 6.25 mg/kg/injection, schedule: Q01DX009 (ip), vehicle: saline with Tween-80 86 % of control

CCN(CC)CCCC(C)NC(=O)c1cccc2c(N)cccc12 (configuration not stated)
inactive: dose: 25.0 mg/kg/injection, schedule: Q01DX009 (ip), vehicle: water 110 % of control | dose: 50.0 mg/kg/injection, schedule: Q01DX009 (ip), vehicle: water 103 % of control | dose: 100.0 mg/kg/injection, schedule: Q01DX009 (ip), vehicle: water 101 % of control | dose: 200.0 mg/kg/injection, schedule: Q01DX009 (ip), vehicle: water 95 % of control | dose: 400.0 mg/kg/injection, schedule: Q01DX009 (ip), vehicle: water 103 % of control

Source: PubChem BioAssay AID248 (DTP/NCI, 2004)
